Columns and labels:
courgettes cv. Diamone = assay: Biostimulating activity on transplanted courgette seedlings in field, fruit yield; assay type: in vivo; settings: for Fruit per lot: treatment repeated every 10 days, harvest June 11-August 27, average per lot; for Increase (%) of fruit per lot: with respect to non-treated Thesis F
Description: The following examples are provided for merely illustrative purpose and in no way intend to limit the scope of the present invention.
When the biological activity experimentally found is higher than the value of E, said activity should be considered as a synergic effect.
An amount of 50 g of each compound under examination (thiazolidine-4-carboxylic acid (compound I) and N-acyl-thiazolidine-4-carboxylic acid (compound II)) were dispersed in water (800 cc) and vigorously stirred. An excess of 5%, with respect to the stoichiometric quantity, of sodium bicarbonate, was then added in portions. 150 g of a non-ionic surface-active agent were added to favour application to the leaves. The whole mixture was brought to a volume of 1 liter by the addition of water, in order to obtain solutions of each compound with a concentration of 50 g/liter.
Assessment of the biostimulating activity of compound (I), compound (II) and their synergic mixture.
Seedlings of courgettes cv. Diamone, sown and cultivated in a hot greenhouse, were transplanted in a field (May 11, Leggiuno, (Varese)—Italy).
The theses were randomly arranged in lots with four repetitions for each thesis. Each lot consisted of six plants in rows situated at a distance of 1 meter from each other, and at a distance of 1 meter from each other in the same row.
Weeding was performed before the transplant, using 1 kg/ha of trifluralin (volume 550 l/ha).
At the moment transplanting, the seedlings have a common degree of vegetative development.
In order to minimize transplant stress, the seedlings planted were treated respectively with: • Thesis A: with compound (I) (ATC) at a dose of 5 g/hl; • Thesis B: with compound (I) (ATC) at a dose of 10 g/hl; • Thesis C: with compound (II) (AATC) at a dose of 5 g/hl; • Thesis D: with compound (II) (AATC) at a dose of 10 g/hl; • Thesis E: with compound (I) (ATC) at a dose of 5 g/hl in a mixture with compound (II) (AATC) at a dose of 5 g/hl; • Thesis F: no biostimulating treatment.
Said treatment was subsequently repeated every 10 days, in a preventive manner, in order to oppose any possible thermal or water stress or stress due to vegetative development. Harvesting was effected from June 11 to August 27, and the yield increases indicated in Table 1, were registered in the treated theses (A, B, C, D, E), with respect to the non-treated Thesis F. The yields are obtained from the average amount of fruit obtained in each lot during the above-mentioned harvesting period (June 11-August 27).

peppers cv. Pathos = assay: Biostimulating effect on transplanted pepper seedlings in tunnel, production yield; assay type: in vivo; settings: 10 g/hl; for Berries kg per lot: repeated every 10 days, harvest July 29-August 29; for Increase (%) of berries kg per lot: versus not treated Thesis E
Description: The whole mixture was brought to a volume of 1 liter by the addition of water, in order to obtain solutions of each compound with a concentration of 50 g/liter. Determination of the amplification of the biostimulating effect obtained by applying compound (I) in the presence of a solution of proline. Seedlings of peppers cv. Pathos were transplanted in a tunnel (April 16, AT). The lots were distributed according to the random block scheme with 5 repetitions per thesis. Each repetition consisted of 15 plants. At the moment of transplanting, the seedlings have a common degree of vegetative development. […] Said treatment was subsequently repeated every 10 days, in a preventive manner, in order to oppose any possible thermal or water stress or stress due to vegetative development. Harvesting was effected from July 29 for the following 30 days, and a production increase was registered in theses B and D, with respect to theses A and C, as indicated in Table 2. The yields are obtained from the average production obtained during the above harvesting period (July 29-August 29).

| Compound | Fruit per lot (courgettes cv. Diamone; 5 g/hl) | Increase (%) of fruit per lot (courgettes cv. Diamone; 5 g/hl) | Fruit per lot (courgettes cv. Diamone; 10 g/hl) | Increase (%) of fruit per lot (courgettes cv. Diamone; 10 g/hl) | Berries kg per lot (peppers cv. Pathos) [kg per lot] | Increase (%) of berries kg per lot (peppers cv. Pathos) |
| --- | --- | --- | --- | --- | --- | --- |
| CC(=O)N1CSCC1C(=O)O (stereo not drawn) [AATC, N-acetylthiazolidine-4-carboxylic acid] | 102 | +5.2% | 109 | +12.4% | 26.40 | +6.9% |
| O=C(O)[C@@H]1CSCN1 [ATC, R-(−)-thiazolidine-4-carboxylic acid] | 100 | +3.1% | 105 | +8.2% | 25.80 | +4.5% |

From patent US20050165070A1, “Compositions with a biostimulating activity” (priority 2002, published 2005)
